In US9617577B2, “Bacillus pumilus bilirubin oxidase and applications thereof” (CENTRE NATIONAL DE LA RECHERCHE SCIENTIFIQUE, priority 2010, dated 2017):

Columns and labels:
Bacillus pumilus BOD [1] = test: Activity as a function of the presence of DTT or EDTA (SGZ oxidation); type: biochemical; details: SGZ 50 μM, 37° C., pH 6.2
Description: (§1) The concentration of SGZ, diluted in methanol, is fixed in the test at 50 μM. […] Table III below collates the results obtained, presented in relative activity form.

[2] = molecular target: T1, Bacillus pumilus bilirubin oxidase (BOD), wild type, strain SAFR-032, SEQ ID No. 2 (C-terminal 6xHis tag) (Bacillus pumilus, UniProt A8FAG9); test: Activity (SGZ oxidation) as a function of the presence of DTT or of EDTA; type: biochemical; details: 50 μM SGZ, 37° C., pH 6.2, read-out: Relative activity
T1 sequence (A8FAG9 with tags, fused parts or gaps): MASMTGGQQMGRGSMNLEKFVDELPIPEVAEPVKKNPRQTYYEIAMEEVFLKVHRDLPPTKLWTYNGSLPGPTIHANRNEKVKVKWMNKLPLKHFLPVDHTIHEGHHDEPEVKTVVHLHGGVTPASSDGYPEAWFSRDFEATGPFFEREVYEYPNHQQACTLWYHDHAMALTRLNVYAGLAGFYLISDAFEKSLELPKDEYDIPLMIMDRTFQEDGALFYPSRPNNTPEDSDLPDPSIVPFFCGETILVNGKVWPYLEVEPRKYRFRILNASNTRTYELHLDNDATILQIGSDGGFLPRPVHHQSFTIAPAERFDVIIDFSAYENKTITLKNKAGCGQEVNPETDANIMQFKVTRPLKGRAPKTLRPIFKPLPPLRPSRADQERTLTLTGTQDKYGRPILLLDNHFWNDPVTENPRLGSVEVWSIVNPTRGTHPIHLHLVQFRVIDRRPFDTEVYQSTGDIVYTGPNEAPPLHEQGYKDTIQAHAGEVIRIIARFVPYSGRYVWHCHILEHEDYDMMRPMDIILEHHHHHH
Description: as §1

[3] = molecular target: T1, Bacillus pumilus bilirubin oxidase (BOD), wild type, strain SAFR-032, SEQ ID No. 2 (C-terminal 6xHis tag); test: Steady-state kinetics of syringaldazine (SGZ) oxidation by B. pumilus BOD; type: biochemical; details: 37° C., 50 mM citrate/phosphate buffer, pH 6.2; model with competitive inhibition; in 1/s
Description: (§2) The SGZ concentration, diluted in methanol, varies in the test from 0 to 300 μM.

Bacillus pumilus BOD [4] = test: Activity as a function of the presence of urea (ABTS oxidation); details: urea 0 to 6 M, 100 mM citrate/phosphate buffer, pH 3
Description: The experiments are carried out at 37° C. on a Varian spectrophotometer in a 0.1 M citrate/phosphate buffer, pH 3. […] The test is triggered by adding enzyme.

[5] = molecular target: T1, Bacillus pumilus bilirubin oxidase (BOD), wild type, strain SAFR-032, SEQ ID No. 2 (C-terminal 6xHis tag); test: Steady-state kinetics of conjugated bilirubin oxidation by B. pumilus BOD; type: biochemical; details: 37° C., 50 mM sodium phosphate buffer, pH 4.8
[6] = molecular target: T1, Bacillus pumilus bilirubin oxidase (BOD), wild type, strain SAFR-032, SEQ ID No. 2 (C-terminal 6xHis tag); test: Steady-state kinetics of 2,6-dimethoxyphenol (DMP) oxidation by B. pumilus BOD; details: 37° C., 50 mM sodium phosphate buffer, pH 6.8
Description: (§3) The experiments are carried out at 37° C. on a Varian spectrophotometer in a 50 mM sodium phosphate buffer, pH 6.8. The 2,6-dimethoxyphenol concentration varies in the test from 0 to 4000 μM. The test, triggered by adding the enzyme, consists in following the oxidation of the DMP at 468 nm by coloroimetric change (ε468nm=14.8 mM^−1 cm^−1).

[7] = substrate: COc1cccc(OC)c1O; test: purified protein, by the assay type; details: other: 37° C., 50 mM sodium phosphate buffer, pH 6.8
Description: as §3

[8] = substrate: COc1cc(/C=N/N=C/c2cc(OC)c(O)c(OC)c2)cc(OC)c1O; test: Steady-state kinetics of syringaldazine (SGZ) oxidation by B. pumilus BOD; type: biochemical, Bacillus pumilus; details: other: 37° C., 50 mM citrate/phosphate buffer, pH 6.2, model with competitive inhibition
Description: as §2

[9] = substrate: C=CC1=C(C)/C(=C/c2[nH]c(Cc3[nH]c(/C=C4\NC(=O)C(C)=C4C=C)c(C)c3CCC(=O)O)c(CCC(=O)O)c2C)NC1=O; test: Steady-state kinetics of unconjugated bilirubin oxidation by B. pumilus BOD; type: biochemical, Bacillus pumilus; details: other: 37° C., 50 mM sodium phosphate buffer, pH 7
[10] = Remazol Brilliant Blue R (RBBR) discoloration activity; type: biochemical; details: RBBR 80 mg.l^−1, 37° C., 50 mM potassium phosphate buffer, pH 6, absence or presence of 10 μM ABTS
Description: The RBBR concentration is fixed at 80 mg.l^−1 in each tank. The test, triggered by adding 10 μg of enzyme, consists in following, over time, the discoloration of the RBBR dye at 593 nm.

[11] = Stability of the enzyme as a function of temperature; type: physicochemical; details: incubation at 80° C., residual activity on ABTS
Description: The enzyme is preincubated at a concentration of 10 mg/ml in a dry bath at 80° C. […] The test is triggered by adding enzyme.

[12] = Specific activity for ABTS; type: biochemical; details: BOD according to the invention
Description: The enzyme is diluted so as to measure a slope between 0.05 and 0.3 OD420nm/min.

In the case of O=C(O)CN(CCN(CC(=O)O)CC(=O)O)CC(=O)O [EDTA], the “Relative activity (%)” value (Bacillus pumilus BOD [1]; EDTA 0.1 mM) is reported as 97 ± 1%, the “Relative activity (%)” value (Bacillus pumilus BOD [1]; EDTA 1 mM) is reported as 99 ± 5% and the “Relative activity (%)” value (Bacillus pumilus BOD [1]; EDTA 10 mM) is reported as 95 ± 1%. For the same molecule, the “Relative activity (%)” value (Bacillus pumilus BOD [1]; EDTA 25 mM) was 98 ± 3%, the “Relative activity (%)” value (Bacillus pumilus BOD [1]; EDTA 50 mM) was 99 ± 4% and the “Relative activity (%)” value (Bacillus pumilus BOD [1]; EDTA 75 mM) was 95 ± 2%. For the same molecule, the “Relative activity (%)” value (Bacillus pumilus BOD [1]; EDTA 100 mM) was 95 ± 1%, the “Relative activity (%)” value (Bacillus pumilus BOD [1]; EDTA 125 mM) was 89 ± 3% and the activity at 100 µM ([2]; EDTA 0.1 mM) was 97 ± 1%. For the same molecule, the activity at 1000 µM ([2]; EDTA 1 mM) was 99 ± 5%, the activity at 10000 µM ([2]; EDTA 10 mM) was 95 ± 1% and the activity at 25000 µM ([2]; EDTA 25 mM) was 98 ± 3%. For the same molecule, the activity at 50000 µM ([2]; EDTA 50 mM) was 99 ± 4%, the activity at 75000 µM ([2]; EDTA 75 mM) was 95 ± 2% and the activity at 100000 µM ([2]; EDTA 100 mM) was 95 ± 1%. The activity at 125000 µM ([2]; EDTA 125 mM) was 89 ± 3%.

Work on COc1cc(/C=N/N=C/c2cc(OC)c(O)c(OC)c2)cc(OC)c1O [SGZ, Syringaldazine] yielded a kcat [3] of 116.1.

In the case of OC(CS)C(O)CS (centres unmarked) [DTT], the activity at 1 µM ([2]; DTT 0.001 mM) is reported as 99 ± 4%, the activity at 5 µM ([2]; DTT 0.005 mM) is reported as 93 ± 2% and the activity at 10 µM ([2]; DTT 0.01 mM) is reported as 93 ± 4%. For the same molecule, the activity at 15 µM ([2]; DTT 0.015 mM) was 94 ± 3%, the activity at 30 µM ([2]; DTT 0.03 mM) was 85 ± 1% and the activity at 50 µM ([2]; DTT 0.05 mM) was 81 ± 4%.

For O[C@@H](CS)[C@@H](O)CS [DTT], the “Relative activity (%)” value (Bacillus pumilus BOD [1]; DTT 0.001 mM) was 99 ± 4%, the “Relative activity (%)” value (Bacillus pumilus BOD [1]; DTT 0.005 mM) was 93 ± 2% and the “Relative activity (%)” value (Bacillus pumilus BOD [1]; DTT 0.01 mM) was 93 ± 4%. For the same molecule, the “Relative activity (%)” value (Bacillus pumilus BOD [1]; DTT 0.015 mM) was 94 ± 3%, the “Relative activity (%)” value (Bacillus pumilus BOD [1]; DTT 0.03 mM) was 85 ± 1% and the “Relative activity (%)” value (Bacillus pumilus BOD [1]; DTT 0.05 mM) was 81 ± 4%.

For NC(N)=O [urea], the “effect of urea on BOD activity (ABTS oxidation)” value (Bacillus pumilus BOD [4]; 25° C.) was “activating effect” and the “effect of urea on BOD activity (ABTS oxidation)” value (Bacillus pumilus BOD [4]; 37° C.) was “not found”.

In the case of conjugated bilirubin, the Km [5] is reported as 35.1 µM and the kcat [5] is reported as 66.8 s⁻¹.

COc1cccc(OC)c1O [DMP, 2,6-Dimethoxyphenol] showed a kss [6] of 57.3 s⁻¹.

B1: Bacillus pumilus bilirubin oxidase (BOD), wild type, strain SAFR-032, SEQ ID No. 2 (C-terminal 6xHis tag) (Bacillus pumilus SAFR-032) (protein)
chain: T1 sequence (A8FAG9 with tags, fused parts or gaps)
B1 gave a Km [7] of 822 µM, a Km [8] of 45.6 µM and a Km [9] of 22 µM. It also gave a kcat [9] of 70 s⁻¹.

B2: Bacillus pumilus BOD: wild-type bilirubin oxidase of Bacillus pumilus strain SAFR032, SEQ ID No. 2, produced in E. coli with C-terminal 6HIS tag (protein, listed as Bacillus pumilus)
chain: T1 sequence (A8FAG9 with tags, fused parts or gaps)
modifications: C-terminal 6His tag
For B2, the “discolouring activity on dyes used in the textile industry” value [10] was “discolouring activity”, the heat stability [11] was “very good heat stability” and the “specific activity for ABTS” value [12] was 375 U/mg.
